Measurements taken from article PMC6257627, “Target Validation and Identification of Novel Boronate Inhibitors of the Plasmodium falciparum Proteasome” (Journal of Medicinal Chemistry, 2018).
*: point of attachment. AMC = Cc1cc(=O)oc2cc(N*)ccc12

Experiments:
Pf20S proteasome = test: Validation of resynthesized Ac-P3-P2-P1-AMC substrates, Pf20S; format: biochemical, P. falciparum; conditions: 10 μM
Protocol: (§1) AMC (10 μM) was used as the fluorescence standard. Pf20S reaction condition: Pf20S (1 nM), human PA28 αβ (24 nM), in 50 mM Tris, pH 7.5, 5 mM MgCl2, 1 mM DTT, 0.01% BSA. Human 20S reaction condition: 0.25 nM human constitutive proteasome or immunoproteasome (Boston Biochem), PA28 αβ (24 nM) in 20 mM HEPES, pH 7.4, 0.5 mM EDTA, 0.01% BSA. The assays were read in kinetic mode at 37 °C using a BMG PHERAstar plate reader, and the rate data were normalized to activity obtained using the Ac-WLR-AMC substrate (=1000 units). For validation of substrate preferences, relevant Ac-P3-P2-P1-AMC substrates were resynthesized by CPC Scientific, CA, USA, and assayed for activity against human and P. falciparum 20S proteasomes in 96-well plates (80 μL reaction, 10 μM substrate) under the same reaction condition.

human proteasome β2 = target: T1, human proteasome β2 (Homo sapiens, UniProt P49720+Q99436); test: Validation of resynthesized Ac-P3-P2-P1-AMC substrates, human proteasome; format: biochemical; conditions: 10 μM
T1 construct: purchased Boston Biochem
Protocol: as §1

[1] = test system: P. falciparum 3D7 parasites; test: Standard 72 h antiplasmodial viability assay, 3D7; format: cell-based, Plasmodium falciparum; conditions: for Pf3D7 LD50 (72 h): sorbitol-treated ring stage, viability in next cycle (~72 h), mean ± SEM, n=3; for Pf3D7 LD50 (72-h): supplement CSV
Protocol: P. falciparum parasites used in this study were propagated in O+ human erythrocytes (Australian Red Cross Blood Service) in RPMI-1640, supplemented with GlutaMAX, 25 mM HEPES (Thermo Fisher Scientific), 5% (v/v) human serum (Australian Red Cross Blood Service), 0.25% (w/v) AlbuMAX II (Thermo Fisher Scientific), 10 μM D-glucose, 22 μg/mL gentamycin (Sigma-Aldrich), and 0.5 mM hypoxanthine (Sigma-Aldrich) and incubated at 37 °C in an atmosphere of 1% O2, 5% CO2, and 94% N2. Cultures were monitored by Giemsa staining of methanol-fixed blood smears. Culture medium was replaced at least every 48 h, and parasitemia was maintained below 10% to ensure health of cultures. The GFP-DD reporter strain was kindly provided by Dr. Paul Gilson, Dr. Brendan Crabb, and Dr. Mauro F. Azevedo (Burnet Institute).
(§2) For standard assays of antiplasmodial activity, sorbitol-treated ring stage parasites were incubated with the drugs for 72 h and viability was assessed in the second cycle.[12] Drug pulse assays were performed as described previously.[47] For short pulse assays, tightly synchronized early ring stage parasites (1–3 h after invasion) at 0.2% hematocrit and 1–2% parasitemia were subjected to 3 h drug pulse at 37 °C and returned to culture until parasites reached trophozoite stage of the following cycle. Cells were then stained with 2 μM Syto-61 (Thermo Fisher Scientific), and their fluorescence was measured by flow cytometry (FACSCanto II cytometer; Becton Dickinson). Data were gated and analyzed using FCS Express software (version 3) to determine parasitemia of each sample. Viability represents the parasitemia normalized to untreated and “kill treated” controls, where “kill treated” refers to samples treated with 2 μM DHA for 48–72 h. Interactions between DHA and MPI-1 or MPI-4 against the K13 mutant (DHA resistant) Cam3.II P. falciparum strain, exposed to a 3 h pulsed treatment, were determined at 4 h after invasion as described previously.[12]

[2] = test system: Pf20S proteasome β1, β2, β5 subunits; format: biochemical, P. falciparum; conditions: compounds 1 h, purified Pf20S or infected erythrocytes
HCT116 cells = test: HCT116 cellular toxicity (CellTiter-Glo, 72 h); format: cell-based, human; conditions: for HCT116 LD50 (72 h): 72 h incubation, mean ± SEM or half range, 2–4 experiments; for HCT116 LD50 (72-h): supplement CSV
Protocol: HCT-116 and HepG2 cells were obtained from the American Type Culture Collection and maintained as recommended by the supplier. Cells were cultured in the ATCC-formulated McCoy’s 5A medium or DMEM (Life Technologies, CA), supplemented with fetal bovine serum to a final concentration of 9–10%, and incubated at 37 °C in an atmosphere of 95% air and 5% CO2. Cellular toxicity assays were performed using Promega’s CellTiter-Glo assay system. Varying concentrations of the test compounds in 5% DMSO/95% PBS were dispensed into a 384-well plate and cells added to each well. The plates were incubated at 37 °C for 72 h, and the CellTiter-Glo assay to assess cell viability was performed as described by the manufacturer (Promega).
For human cell line activity assays, cellular toxicity assays were performed as described previously.[23],[48]

HepG2 cells = test: HepG2 cellular toxicity (CellTiter-Glo, 72 h); format: cell-based, human; conditions: for HepG2 LD50 (72 h): 72 h incubation, mean ± SEM or half range, 2–4 experiments; for HepG2 LD50( 72-h): supplement CSV
[3] = test system: Pf20S proteasome subunits of bortezomib-resistant parasites; test: BMV037 active site probe competition, bortezomib-resistant parasites; format: biochemical, P. falciparum; conditions: compounds 1 h
Protocol: Figure 3 Active site probe analysis of the proteasome subunit specificity of the selected compounds in 3D7 parent and bortezomib-resistant parasites. Purified Pf20S proteasome from wild-type 3D7 (A) and bortezomib-resistant (C) parasites or wild-type 3D7 (B) and bortezomib-resistant (D) trophozoite-infected erythrocytes were treated with compounds for 1 h, and activity-based probe (BMV037) labeling was performed (postlysis for the trophozoite samples). Fluorescent gel scans reveal subunits that remain active after treatment.
P. falciparum culture, purified Pf20S proteasomes, human constitutive proteasomes, or immunoproteasomes (Boston Biochem) were incubated with test compounds at 37 °C for 1 h. Treated parasite lysates (10 μg), Pf20S proteasomes (80 nM), human constitutive proteasomes (20 nM), or immuno-20S proteasomes (20 nM) were labeled with BMV037 (10 μM) at 37 °C for 2 h. Samples were mixed with SDS loading buffer and heated at 95 °C for 5 min. Samples for P. falciparum and human immuno-20S were run on 4–12% Bis-Tris acrylamide gels using MES SDS running buffer (Thermo Fisher Scientific). Human constitutive 20S samples were run on a 10% Bis-Tris acrylamide gel using MOPS SDS running buffer (Thermo Fisher Scientific). Gels were imaged at the Cy5 channel on a Gel Doc XR+ Documentation System (Bio-Rad) or an Amersham Typhoon Trio imager (GE Healthcare Life Sciences).

[4] = test system: P. falciparum Cam3.II^Rev; test: 3 h pulsed exposure viability assay, K13 wild-type revertant early rings; format: cell-based, Plasmodium falciparum; conditions: for Cam3.II^Rev LD50 (3 h): early ring (1–3 h p.i.), 3 h pulse, viability in next cycle, mean ± SEM, n=3; for Cam3.IIRev LD50 (3-h): supplement CSV
Protocol: as §2

[5] = test system: human constitutive proteasome and immunoproteasome catalytic subunits; test: BMV037 active site probe competition, purified human 20S proteasomes; format: biochemical; conditions: for subunit specificity by BMV037 probe labeling, human constitutive proteasome and immunoproteasome: compounds 1 h, probe 2 h
[6] = test system: P. falciparum Cam3.II^R539T; test: 3 h pulsed exposure viability assay, K13 mutant early rings; format: cell-based, Plasmodium falciparum; conditions: for Cam3.II^R539T LD50 (3 h): early ring (1–3 h p.i.), 3 h pulse, viability in next cycle, mean ± SEM, n=3; for Cam3.IIR539T LD50 (3-h): supplement CSV
Protocol: as §2

[7] = test system: bortezomib-resistant 3D7 B1 line (clone B1a); test: 72 h viability assay, bortezomib-resistant B1 line / clone B1a; format: cell-based, Plasmodium falciparum; conditions: for cross-resistance of the bortezomib-resistant parasite line (B1): growth inhibition, versus 3D7; for bortezomib-resistant 3D7 B1 line LD50 (72 h): ring stage, mean ± SEM, n=3; for Bortezomib-resistant3D7 B1 LD50 (72-h): supplement CSV
Protocol: as §2
Prior to selection, an aliquot of the parental line was stocked as a reference for subsequent whole genome sequencing analysis. Several independent clones of P. falciparum 3D7 parasite line were cultured in Petri dishes exposed to increasing drug pressure for ∼30 weeks. Parasites were cloned by limiting dilution. For parasite extraction and genomic DNA isolation, cultures were scaled up to at least 4–5% parasitaemia, lysed in saponin, and genomic DNA was isolated using ISOLATE II Genomic DNA kit (Bioline). DNA libraries for each gDNA sample were prepared for sequencing using the Nextera XT kit as described previously.[50] Libraries were clustered and run on an Illumina HiSeq 2500 using the RapidRun mode, sequencing 100 base pairs in depth on either end. Paired-end reads were either aligned to the P. falciparum 3D7 reference genome (PlasmoDB version 13.0).

[8] = target: Plasmodium falciparum 20S proteasome β1 (Plasmodium falciparum, UniProt Q8I0U7+Q8I6T3); format: biochemical
Sequence of Plasmodium falciparum 20S proteasome β1 (Q9UL46 2-239): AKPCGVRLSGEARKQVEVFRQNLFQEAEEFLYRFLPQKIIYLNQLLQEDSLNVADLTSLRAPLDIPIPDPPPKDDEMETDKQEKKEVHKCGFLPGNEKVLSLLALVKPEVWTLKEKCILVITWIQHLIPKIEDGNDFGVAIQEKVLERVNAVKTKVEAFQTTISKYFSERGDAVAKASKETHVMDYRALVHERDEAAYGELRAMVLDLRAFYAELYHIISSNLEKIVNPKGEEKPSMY
Sequence of Plasmodium falciparum 20S proteasome β1 (Q8I0U7 entry or part of it): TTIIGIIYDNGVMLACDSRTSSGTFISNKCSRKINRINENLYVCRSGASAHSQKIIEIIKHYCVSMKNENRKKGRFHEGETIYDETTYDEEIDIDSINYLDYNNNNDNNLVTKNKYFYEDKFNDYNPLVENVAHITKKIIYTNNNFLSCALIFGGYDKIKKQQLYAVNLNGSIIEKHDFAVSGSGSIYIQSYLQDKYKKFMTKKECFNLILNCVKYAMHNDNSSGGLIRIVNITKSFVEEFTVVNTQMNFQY
Sequence of Plasmodium falciparum 20S proteasome β1 (Q8I6T3 entry or part of it): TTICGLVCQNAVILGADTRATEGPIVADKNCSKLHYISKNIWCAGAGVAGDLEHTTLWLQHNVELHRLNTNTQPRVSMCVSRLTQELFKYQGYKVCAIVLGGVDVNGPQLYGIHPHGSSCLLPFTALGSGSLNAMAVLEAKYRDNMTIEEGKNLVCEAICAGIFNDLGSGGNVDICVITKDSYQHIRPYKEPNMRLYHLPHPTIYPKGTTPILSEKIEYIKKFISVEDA
Sequence of Plasmodium falciparum 20S proteasome β1 (Q06323 whole entry, further chain): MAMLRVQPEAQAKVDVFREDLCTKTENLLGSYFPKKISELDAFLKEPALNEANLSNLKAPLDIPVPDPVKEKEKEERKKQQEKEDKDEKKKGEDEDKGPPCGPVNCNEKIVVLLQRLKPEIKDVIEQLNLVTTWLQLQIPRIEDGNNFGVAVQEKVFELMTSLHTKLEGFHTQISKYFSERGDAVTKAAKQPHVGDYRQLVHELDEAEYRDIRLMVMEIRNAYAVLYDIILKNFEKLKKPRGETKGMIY

[9] = target: Plasmodium falciparum 20S proteasome β5 (Plasmodium falciparum, UniProt A0A5K1K7U1+Q8IJT1); test: Pf20S proteasome fluorogenic assay, chymotrypsin-like activity (Ac-WLA-AMC); format: biochemical; conditions: 0.8 μM carfilzomib
Sequence of Plasmodium falciparum 20S proteasome β5 (Q9UL46 2-239): as the sequence (Q9UL46 2-239) above
Sequence of Plasmodium falciparum 20S proteasome β5 (A0A5K1K7U1 entry or part of it): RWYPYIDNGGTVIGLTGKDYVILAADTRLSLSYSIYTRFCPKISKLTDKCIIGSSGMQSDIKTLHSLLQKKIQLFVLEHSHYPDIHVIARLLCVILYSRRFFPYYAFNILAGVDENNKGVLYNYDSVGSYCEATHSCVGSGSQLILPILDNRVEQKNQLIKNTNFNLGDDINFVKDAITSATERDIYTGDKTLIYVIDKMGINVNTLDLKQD
Sequence of Plasmodium falciparum 20S proteasome β5 (Q06323 whole entry, further chain): as the sequence (Q06323 whole entry, further chain) above
Sequence of Plasmodium falciparum 20S proteasome β5 (Q8IJT1 entry or part of it): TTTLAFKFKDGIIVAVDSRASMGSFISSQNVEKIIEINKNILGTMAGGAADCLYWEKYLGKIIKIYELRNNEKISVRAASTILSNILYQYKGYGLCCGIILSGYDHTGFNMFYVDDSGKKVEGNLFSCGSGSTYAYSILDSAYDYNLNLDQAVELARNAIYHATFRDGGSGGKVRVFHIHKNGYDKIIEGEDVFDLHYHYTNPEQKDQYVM

[10] = target: Plasmodium falciparum 20S proteasome β2 (Plasmodium falciparum, UniProt Q8I261+Q8I6T3); format: biochemical
Sequence of Plasmodium falciparum 20S proteasome β2 (Q8I261 entry or part of it): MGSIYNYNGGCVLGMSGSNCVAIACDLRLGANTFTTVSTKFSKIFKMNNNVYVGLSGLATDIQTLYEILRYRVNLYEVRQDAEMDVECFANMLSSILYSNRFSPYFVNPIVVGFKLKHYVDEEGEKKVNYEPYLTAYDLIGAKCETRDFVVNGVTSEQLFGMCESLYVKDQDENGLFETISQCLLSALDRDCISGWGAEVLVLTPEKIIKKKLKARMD
Sequence of Plasmodium falciparum 20S proteasome β2 (Q06323 whole entry, further chain): as the sequence (Q06323 whole entry, further chain) above
Sequence of Plasmodium falciparum 20S proteasome β2 (Q8I6T3 entry or part of it): as the sequence (Q8I6T3 entry or part of it) above
Sequence of Plasmodium falciparum 20S proteasome β2 (Q9UL46 2-239, further chain): as the sequence (Q9UL46 2-239) above

Compound | activity as substrate for Pf20S (Pf20S proteasome) | Pf3D7 LD50 (72 h) [1] [µM] | Pf3D7 LD50 (72-h) [1] [µM] | subunit specificity by BMV037 probe labeling, wild-type 3D7 [2] | HCT116 LD50 (72 h) (HCT116 cells) [µM] | HCT116 LD50 (72-h) (HCT116 cells) [µM] | HepG2 LD50 (72 h) (HepG2 cells) [µM] | HepG2 LD50( 72-h) (HepG2 cells) [µM] | Cam3.II^Rev LD50 (3 h) [4] [µM] | Cam3.IIRev LD50 (3-h) [4] [µM] | subunit specificity by BMV037 probe labeling, human constitutive proteasome and immunoproteasome [5] | Cam3.II^R539T LD50 (3 h) [6] [µM] | Cam3.IIR539T LD50 (3-h) [6] [µM] | cross-resistance of the bortezomib-resistant parasite line (B1) [7] | bortezomib-resistant 3D7 B1 line LD50 (72 h) [7] [µM] | Bortezomib-resistant3D7 B1 LD50 (72-h) [7] [µM] | also measured
Ac-Arg-Gln-Arg-{AMC} | inactive | – | – | – | – | – | – | – | – | – | – | – | – | – | – | – | activity as substrate for human proteasome β2 (human proteasome β2): good human proteasome β2 substrate
CC(=O)N1CCC[C@H]1C(=O)N[C@@H](C)C(=O)N[C@@H](CC(C)C)B(O)O [MPI-2] | – | 0.16 ± 0.02 | 0.16 ± 0.02 | preferentially inhibited binding of the probe to the β5 subunit | 1.3 ± 0.3 | 1.3 ± 0.3 | 2.4 ± 0.73 | 2.4 ± 0.73 | 1.8 ± 0.2 | 1.8 ± 0.2 | preferentially inhibited β1c and β5i | 1.5 ± 0.2 | 1.5 ± 0.2 | very strong cross-resistance | >2 | > 2 | BMV037 labeling of the β5 active site in bortezomib-resistant parasites [3]: no longer able to prevent BMV037 labeling of the β5 active site
Ac-Lys-Trp-His-{AMC} | both active and selective for Pf20S | – | – | – | – | – | – | – | – | – | – | – | – | – | – | – | –
Ac-Trp-Trp-Lys-{AMC} | both active and selective for Pf20S | – | – | – | – | – | – | – | – | – | – | – | – | – | – | – | –
Cc1ccc(S(=O)(=O)N[C@@H](CC(=O)NCC(C)(C)C)C(=O)N[C@@H](Cc2ccccc2)C(=O)N[C@@H](CC(C)C)B(O)O)cc1 [MPI-3] | – | 0.065 ± 0.004 | 0.065 ± 0.004 | inhibited both β2 and β5 activities | 0.027 ± 0.002 | 0.027 ± 0.002 | 0.26 ± 0.06 | 0.26 ± 0.06 | 0.21 ± 0.03 | 0.21 ± 0.03 | preferential inhibition of the β1 and β5 subunits | 0.19 ± 0.03 | 0.19 ± 0.03 | retained sensitivity | 0.054 ± 0.007 | 0.054 ± 0.007 | IC50 ([1]; Plasmodium falciparum, 3D7, dose–response profiles, n = 3, read-out: 50% viability inhibitory concentration against 3D7 parasites): ~60 nM; BMV037 competition profile in bortezomib-resistant parasites [3]: very similar in the bortezomib-resistant and wild-type parasites; BMV037 labeling of the human β1 and β5 subunits after treatment ([5]; 1 μM, especially constitutive proteasome): still evident
CC(C)C[C@H](NC(=O)[C@H](CCc1ccccc1)NC(=O)CN1CCOCC1)C(=O)N[C@@H](Cc1ccccc1)C(=O)N[C@@H](CC(C)C)C(=O)[C@@]1(C)CO1 [carfilzomib] | – | – | – | – | – | – | – | – | – | – | – | – | – | – | – | – | inhibitory effect against Pf20S proteasome β1 activity [8]: only weak inhibitory effect; Pf20S β5 activity with carfilzomib [9]: completely abrogated; Pf20S β2 activity with carfilzomib [10]: completely abrogated
